Like-named read-outs stand apart in the source and are kept apart here. Where only a bound is given, the exact number is not on record here.

For series [1], the target named is Cathepsin L (Homo sapiens, UniProt P07711). As to the kind of experiment: Cathepsin IC50, Cathepsin L. It counts as biochemical.
Series [2] concerns the target T1, hERG potassium channel (Homo sapiens, UniProt Q12809).
T1 construct: expressed in transfected cells
The series is described as follows: hERG potassium channel in stably expressed CHO cells. Type of series: cell-based. To be noted: for IC50: 0.01 to 30 μM, n=3; for inhibition at 30 µM: human, CHO cells stably expressing hERG, read-out: inhibition of the hERG current amplitude. As for the experimental part:
The hERG predictor assay provides valuable information about the possible binding of test compounds to the potassium channel and potential QT prolongation on […]. Inhibition of the hERG current causes QT interval prolongation resulting in potentially fatal ventricular tachyarrhythmia (Torsades de Pointes). Typically, assay data may be generated from an automated patch-clamp assay platform.
Example 1 was evaluated for effects on the hERG potassium channel, in stably expressed CHO cells at concentrations between 0.01 and 30 μM.
Example 2 was evaluated for effects on the hERG potassium channel, in stably expressed CHO cells at concentrations between 0.01 and 30 μM.

For series [3], the system named is T2, UCHL1, USP1, USP2, USP6, USP9x, USP10, USP15, USP16, USP20, USP21, USP22, USP25, USP28, USP35, USP36, USP46/UAF1.
T2 construct: other: each of UCHL1, USP1, USP2, USP6, USP9x, USP10, USP15, USP16, USP20, USP21, USP22, U
The series is described as follows: DUB biochemical IC50 assays (off-target panel). The note with it: each of UCHL1, USP1, USP2, USP6, USP9x, USP10, USP15, USP16, USP20, USP21, USP22, USP25, USP28, USP35, USP36, USP46/UAF1; read-out: IC50 (μM) against DUB panel.

Series [4] concerns TK6 cells. As to the kind of experiment: In vitro micronucleus assay in TK6 cells. Type of series: cell-based. To be noted: 27 hours recovery. As for the experimental part:
The micronucleus assay may be used to determine if a compound is genotoxic by evaluating the presence of micronuclei. Micronuclei may contain chromosome fragments produced from DNA breakage (clastogens) or whole chromosomes produced by disruption of the mitotic apparatus (aneugens).
Example 1 was assessed in the bacterial reverse mutation assay (Ames) and in vitro micronucleus assay. All in vitro tests were conducted with and without exogenous metabolic activation using concentrations up to those limited by cytotoxicity or insolubility.
Induction of chromosome damage was assessed using the in vitro micronucleus assay in TK6 cells. Example 1 was negative for induction of micronuclei when incubated for 3 hours in the presence of exogenous metabolic activation followed by 27 hours recovery, and also when incubated for 27 hours in the absence of exogenous metabolic activation followed by 27 hours recovery.

Series [5] has as its system Eurofins CEREP SafetyScreen44 panel. The series is described as follows: Eurofins CEREP SafetyScreen44 panel profiling. Type of series: binding. The note with it: single concentration of 10 μM; for Example 2 all targets except 5-HT2b. The source says: Aside from selectivity over other DUB enzymes, it is important for a drug to have low affinity for other targets, and pharmacological profiling may be performed against panels of targets to assess the potential for, and to minimise, potential off-target effects. Examples of targets for which the compounds of the present invention may be screened against are those of the industry standard Eurofins-Cerep SafetyScreen44 panel, which includes 44 targets as a representative selection of GPCR receptors, transporters, ion channels, nuclear receptors, and kinase and non-kinase enzymes. Preferably, compounds of the invention have insignificant affinity against targets of this screening panel. Further examples of targets for which the compounds of the present invention may be screened against are kinases of the Thermo Fisher SelectScreen kinase profiling panel, which includes 39 targets as a representative selection of kinase enzymes. Preferably, compounds of the invention have insignificant affinity against targets of this screening panel. Additionally, examples of a particular enzyme class for which the compounds of the present invention may be screened against are the cathepsins (e.g. cathepsin A, B, C, H, K, L, L2, S, V and Z). Preferably, compounds of the invention have good selectivity for USP30 over one or more of these enzymes. […]

Series [6] deals with T3, 5-HT2b (Homo sapiens, UniProt P41595).
T3 construct: purchased Eurofins CEREP (contract screening panel) SafetyScreen44
T3 sequence (P41595 whole entry): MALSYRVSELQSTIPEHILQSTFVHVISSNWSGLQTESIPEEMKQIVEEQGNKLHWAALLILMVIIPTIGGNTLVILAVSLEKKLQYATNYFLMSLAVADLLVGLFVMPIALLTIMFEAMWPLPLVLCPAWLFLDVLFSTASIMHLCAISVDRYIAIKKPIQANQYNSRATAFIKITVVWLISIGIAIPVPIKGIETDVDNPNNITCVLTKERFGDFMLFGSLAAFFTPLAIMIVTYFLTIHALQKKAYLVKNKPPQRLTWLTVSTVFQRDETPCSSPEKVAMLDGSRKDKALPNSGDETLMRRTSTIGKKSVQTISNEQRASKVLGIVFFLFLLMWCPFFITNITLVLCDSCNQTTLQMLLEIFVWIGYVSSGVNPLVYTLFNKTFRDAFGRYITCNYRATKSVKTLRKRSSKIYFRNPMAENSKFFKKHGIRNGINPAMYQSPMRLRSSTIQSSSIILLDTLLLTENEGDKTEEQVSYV
As to the kind of experiment: Eurofins CEREP SafetyScreen44 panel, 5-HT2b. It counts as binding. The source says:
Example 2 was subject to pharmacological profiling in the Eurofins CEREP SafetyScreen44 panel.

The test system of series [7] is T4, UCHL1, USP1, USP2, USP6, USP9x, USP10, USP15, USP16, USP20, USP21, USP22, USP25, USP28, USP35, USP36, USP46/UAF1.
T4 construct: other: each of UCHL1, USP1, USP9x, USP10, USP15, USP16, USP20, USP21, USP22, USP25, USP28
As to the kind of experiment: DUB biochemical IC50 assays (off-target panel). To be noted: each of UCHL1, USP1, USP9x, USP10, USP15, USP16, USP20, USP21, USP22, USP25, USP28, USP35, USP36, USP46/UAF1; read-out: IC50 (μM) against DUB panel.

T1 sequence (Q12809 whole entry): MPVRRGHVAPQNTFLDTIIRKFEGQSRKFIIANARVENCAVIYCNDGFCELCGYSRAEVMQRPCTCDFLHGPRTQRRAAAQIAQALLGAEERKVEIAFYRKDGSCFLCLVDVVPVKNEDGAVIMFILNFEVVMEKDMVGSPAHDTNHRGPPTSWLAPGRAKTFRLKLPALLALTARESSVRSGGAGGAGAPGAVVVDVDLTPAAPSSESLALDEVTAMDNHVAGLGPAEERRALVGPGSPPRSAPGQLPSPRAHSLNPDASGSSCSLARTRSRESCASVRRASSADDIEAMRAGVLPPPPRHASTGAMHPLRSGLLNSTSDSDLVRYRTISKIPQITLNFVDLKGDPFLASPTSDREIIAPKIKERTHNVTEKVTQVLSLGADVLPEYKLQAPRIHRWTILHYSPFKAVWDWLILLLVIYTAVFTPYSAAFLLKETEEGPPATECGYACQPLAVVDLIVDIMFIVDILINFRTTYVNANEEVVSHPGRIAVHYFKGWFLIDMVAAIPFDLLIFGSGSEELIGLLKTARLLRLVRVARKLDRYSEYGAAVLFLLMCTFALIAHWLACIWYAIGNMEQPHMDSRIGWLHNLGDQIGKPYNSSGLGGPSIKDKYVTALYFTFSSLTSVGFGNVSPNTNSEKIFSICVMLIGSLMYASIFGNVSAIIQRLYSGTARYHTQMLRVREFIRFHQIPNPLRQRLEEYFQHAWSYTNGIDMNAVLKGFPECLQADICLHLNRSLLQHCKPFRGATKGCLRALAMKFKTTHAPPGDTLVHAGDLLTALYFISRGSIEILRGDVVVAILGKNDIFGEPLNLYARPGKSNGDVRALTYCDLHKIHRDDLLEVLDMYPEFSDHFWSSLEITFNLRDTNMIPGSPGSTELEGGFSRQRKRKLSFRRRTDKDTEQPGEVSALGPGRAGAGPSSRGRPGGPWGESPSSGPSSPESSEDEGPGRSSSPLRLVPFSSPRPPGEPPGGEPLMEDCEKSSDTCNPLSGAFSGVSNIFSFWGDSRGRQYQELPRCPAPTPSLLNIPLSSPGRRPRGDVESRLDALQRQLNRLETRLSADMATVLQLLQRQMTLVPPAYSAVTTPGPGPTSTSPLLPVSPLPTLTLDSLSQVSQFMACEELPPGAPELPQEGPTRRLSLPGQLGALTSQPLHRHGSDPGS
Chain of Cathepsin L (P07711 114-333, species assumed): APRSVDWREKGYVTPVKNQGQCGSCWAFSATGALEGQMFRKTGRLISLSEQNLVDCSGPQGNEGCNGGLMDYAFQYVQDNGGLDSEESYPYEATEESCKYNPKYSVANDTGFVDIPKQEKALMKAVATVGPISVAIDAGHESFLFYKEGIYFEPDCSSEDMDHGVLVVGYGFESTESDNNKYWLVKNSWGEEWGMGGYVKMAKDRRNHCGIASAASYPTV

As usually defined, the IC50 is the concentration that inhibits the measured activity by half. A word on the inhibition: it is the drop in the measured response relative to a control, in per cent. On to `COC[C@@H]1C[C@@H](NC(=O)c2ncc(-c3cccc(OC(F)(F)F)c3)o2)CN1C#N` [Example 1, N-((3R,5S)-1-Cyano-5-(methoxymethyl)pyrrolidin-3-yl)-5-(3-(trifluoromethoxy)phenyl)oxazole-2-carboxamide], for which the IC50 in series [1] was 17.7 µM; in series [2], 34.3 µM; in series [3], ≥ 4.4 µM. For the same compound, the inhibition at 30 µM in series [2] worked out at 44.3%. For the same compound, the induction of micronuclei result in series [4] (3 hours in the presence of exogenous metabolic activation) and in series [4] (27 hours in the absence of exogenous metabolic activation) was “negative” in each case. Besides, in series [5], the “inhibition of binding or enzyme activity against all targets in the panel” value is given as “less than 20%”.
As to `C[C@@H]1C[C@@H](NC(=O)c2ncc(-c3cccc(OC(F)(F)F)c3)o2)CN1C#N` [Example 2, N-((3R,5R)-1-Cyano-5-methylpyrrolidin-3-yl)-5-(3-(trifluoromethoxy)phenyl)oxazole-2-carboxamide], in series [6], at 10 µM the inhibition was 32%. For the same compound, the values for the IC50 in series [2] and in series [7] were 24.7 µM and ≥ 4.7 µM, respectively. The inhibition at 30 µM in series [2] is 54.3%. Besides, the “inhibition of binding or enzyme activity against all targets in the panel” value in series [5] is given as “less than 20%”.

These data come from patent publication US20230119013A1, “N-CYANOPYRROLIDINES WITH ACTIVITY AS USP30 INHIBITORS” (MISSION THERAPEUTICS LIMITED, priority 2020, published 2023).
